The target of one experiment is T1, TbPTR1 (Trypanosoma brucei brucei, UniProt O76290).
T1 sequence (O76290 1-268): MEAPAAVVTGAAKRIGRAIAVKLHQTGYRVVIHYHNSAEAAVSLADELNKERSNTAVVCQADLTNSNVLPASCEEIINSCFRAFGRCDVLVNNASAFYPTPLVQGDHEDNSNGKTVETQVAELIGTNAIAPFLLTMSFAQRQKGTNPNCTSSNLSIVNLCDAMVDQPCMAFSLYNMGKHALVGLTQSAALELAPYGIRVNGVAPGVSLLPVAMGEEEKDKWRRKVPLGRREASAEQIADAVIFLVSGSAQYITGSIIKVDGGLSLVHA
As to the kind of experiment: Spectrophotometric inhibition assay with recombinant TbPTR1. The format is biochemical. Particulars: for inhibition at 100 µM: read-out: TbPTR1 Inhibition at 100 µM (%); for EC50: EC50 reported because complete inhibition not reached (solubility issues), read-out: TbPTR1 EC50 (footnote a in IC50 column). The protocol:
The concentration and the activity of TbPTR1, as well as the saturating conditions of its substrate and co-substrate were determined by monitoring the oxidation of the co-substrate NADPH to NADP^+ via UV/Vis spectroscopy (Hitachi U-2900, Tokyo, Japan). […] The experiments were carried out as triplicates using buffer A (50 mM Tris/HCl (pH 7.6), 250 mM NaCl).
The concentration of TbPTR1 was 3.23 mg/mL. Its specific activity was calculated to be 0.03 U/mg. All experiments were carried out using the saturating concentrations of folic acid (8 µM) and NADPH (150 µM). The diagrams for the determination of the saturating conditions are depicted in the Supplementary Materials Figure S15.
(§1) All measurements were carried out as duplicates and compared with a reference containing no inhibitor. The reference measurements were used to determine the full catalytic activity of the respective enzyme (100%), and the relative catalytic activity of all following measurements including inhibitors was calculated accordingly.
(§2) The compounds that were able to inhibit the activity of TbPTR1 or TbDHFR ≥ 50% in the single concentration assays were further investigated by the determination of their half maximal inhibitory concentration (IC50), including at least five inhibitor concentrations. If a complete inhibition of the enzyme could not be achieved experimentally due to the given assay conditions, the half maximal effective concentration (EC50) was determined instead. All measurements were carried out as triplicates against a reference containing no inhibitor at saturating conditions (Section 4.8.). The documented enzyme activity was analysed by nonlinear regression using GraphPad Prism 8 (GraphPad Software Inc., La Jolla, CA, USA).

A further experiment has as its target TbDHFR (Trypanosoma brucei brucei, UniProt Q27783). As to the kind of experiment: Spectrophotometric inhibition assay with recombinant TbDHFR. The format is biochemical. As to conditions: for inhibition at 50 µM / TbDHFR Inhibition at 50 µM (%): NADPH 150 µM, DHF 50 µM. How it is done: Kinetic analysis of TbDHFR was performed according to 4.5. All measurements were carried out as triplicates using buffer B (50 mM Tris/HCl (pH 7.6), 250 mM NaCl, 10 mM BME).
The concentration of TbDHFR was 0.04 mg/mL with a specific activity of 38.1 U/mg. All experiments were carried out using the saturating concentrations of dihydrofolate (DHF, 50 µM) and NADPH (150 µM). The diagrams for the determination of the saturating conditions are depicted in the Supplementary Materials Figure S16.
as §1, §2

The test system of a further experiment is T. brucei rhodesiense. Particulars: in vitro growth inhibition; cited from earlier work.
The test system of a further experiment is T. brucei. Also on record: method as in PMID 22331812. Particulars: acute mouse model; cited from earlier work.
Where [1] appears, read: 100 µM compound, NADPH 150 µM, folic acid 8 µM.
The mark [2] stands for this setting: 50 µM compound, read-out: TbDHFR Inhibition at 50 µM (%).

Like-named read-outs stand apart in the source and are kept apart here.

Chain of TbDHFR (Q27783 28-238 limits assumed): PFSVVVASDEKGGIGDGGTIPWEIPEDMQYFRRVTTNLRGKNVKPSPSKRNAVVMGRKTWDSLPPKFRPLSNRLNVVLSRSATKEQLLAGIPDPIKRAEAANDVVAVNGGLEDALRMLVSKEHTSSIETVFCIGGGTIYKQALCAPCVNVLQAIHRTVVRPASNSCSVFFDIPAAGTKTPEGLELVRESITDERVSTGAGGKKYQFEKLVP

As to `C=C1C(=O)O[C@@H]2/C=C(\CO)CC/C=C(\C)C[C@H](OC(=O)C(=C)[C@H](O)CO)[C@@H]12` [Compound 1, cnicin], the inhibition at 100 µM on TbPTR1 (setting [1]) was found to be 63.9%. Further, the EC50 at TbPTR1 came out at 21.2 µM. For the same molecule, the inhibition at 50 µM on TbDHFR (setting [2]) turned out to be 15.2%. Further, the IC50 in the experiment with T. brucei rhodesiense was 0.4 µM.

As for `C=C(CO)C(=O)O[C@H]1CC(=C)[C@@H]2C[C@H](O)C(=C)[C@@H]2[C@H]2OC(=O)C(=C)[C@@H]21` [Compound 2, cynaropicrin], the IC50 on TbPTR1 was 12.4 µM; at TbDHFR, 7.1 µM; with T. brucei rhodesiense, 0.3 µM. Further, the inhibition at 100 µM on TbPTR1 is 92.1%. The “in vivo activity against the parasite” value with T. brucei is reported as “in vivo activity against the parasite”.

Turning to `C=C1C(=O)OC2C1CC(OC(=O)C(C)C(C)O)C(C)=CCCC1(C)OC21` (stereo not shown) [Compound 3], the inhibition at 100 µM on TbPTR1 (setting [1]) is 73.1%. For the same molecule, the IC50 on TbPTR1 (saturating conditions, nonlinear regression, read-out: TbPTR1 IC50) was 40.5 µM; on TbDHFR (saturating conditions, nonlinear regression, read-out: TbDHFR IC50), 13.3 µM; in the experiment with T. brucei rhodesiense it was 1.3 µM. The inhibition at 50 µM on TbDHFR (setting [2]) was > 50%.

With `C=C1C(=O)O[C@@H]2/C=C(/CO)C3=CC(=O)[C@@](C)(C[C@@H](OC(=O)/C(C)=C\C)[C@@H]12)O3` [Compound 4], the IC50 on TbPTR1 was 30.5 µM; with T. brucei rhodesiense it was 0.1 µM. Moreover, at TbPTR1 (setting [1]), the inhibition at 100 µM worked out at 79.9%. The inhibition at 50 µM at TbDHFR (setting [2]) worked out at 34.9%.

On to `C=C1C(=O)OC2C=C(C)C(OC(C)=O)CC=C(C)CC(OC(=O)C(=CCO)CO)C12` (stereo not shown) [Compound 5, (Z)-eucannabinolide], for which the inhibition at 100 µM at TbPTR1 (setting [1]) was determined as 58.1%. Further, the EC50 at TbPTR1 was found to be 31.5 µM. Besides, the “TbDHFR Inhibition at 50 µM (%)” value at TbDHFR (50 µM compound) was “No TbDHFR inhibition could be detected and n.i”. In addition, in the experiment on T. brucei rhodesiense, the half-inhibitory concentration (IC50) is 1.7 µM.

On to `C=C1C(=O)OC2C=C(C)C(OC(=O)C(O)C(C)C)CC=C(C)CC(OC(=O)C(=CCO)CO)C12` (stereo not shown) [Compound 6], for which the inhibition at 100 µM on TbPTR1 (setting [1]) was 33.1%. Also, the “TbDHFR Inhibition at 50 µM (%)” value on TbDHFR (50 µM compound) is “n.i”. For the same molecule, the IC50 with T. brucei rhodesiense was 0.8 µM.

With `C=C1C(=O)O[C@@H]2/C=C(\C)C[C@H](O)/C=C(\C)C[C@@H](OC(=O)/C(=C\C)COC(C)=O)[C@@H]12` [Compound 7], at TbPTR1, the inhibition at 100 µM turned out to be 25.6%. For the same molecule, at TbDHFR (read-out: TbDHFR Inhibition at 50 µM (%), 50 µM compound), the inhibition at 50 µM was found to be 48.7%. The IC50 in the experiment with T. brucei rhodesiense is 1.6 µM.

`C=C1C(=O)O[C@H]2[C@H]1[C@H](OC(=O)/C(=C/COC(=O)C(O)C(C)C)CO)C[C@]1(C)[C@@H]2[C@H](C)C(=O)C[C@H]1O` (stereo partly shown) [Compound 8]: the inhibition at 100 µM at TbPTR1 (setting [1]) came to 14.2%. Besides, the inhibition at 50 µM at TbDHFR (setting [2]) came to 40.7%. In addition, the IC50 with T. brucei rhodesiense was 2.7 µM.

Consider `C=C1C(=O)OC2C=C(C)C(O)CC=C(C)CC(OC(=O)C(=CCOC(=O)C(O)C(C)C)CO)C12` (stereo not shown) [Compound 9], for which the inhibition at 100 µM at TbPTR1 (setting [1]) stood at 28.5%. Moreover, the inhibition at 50 µM at TbDHFR (setting [2]) is 95.9%. Further, the IC50 in the experiment on T. brucei rhodesiense is 2.6 µM.

On to `C=C1C(=O)OC2C=C(C)C(O)CC=C(C)CC(OC(=O)C(=CCOC(=O)C(O)C(C)CC)CO)C12` (stereo not shown) [Compound 10], for which the inhibition at 100 µM at TbPTR1 (setting [1]) was determined as 26.7%. For the same molecule, the inhibition at 50 µM on TbDHFR (setting [2]) worked out at 20.1%. For the same molecule, in the experiment with T. brucei rhodesiense, the IC50 was 4 µM.

The values are drawn from article PMC8747069, “Sesquiterpene Lactones with Dual Inhibitory Activity against the Trypanosoma brucei Pteridine Reductase 1 and Dihydrofolate Reductase” (Molecules, 2021).
